Format in all cases: cell-based
Assay [1] has as its target T1, BRM (Homo sapiens, UniProt P51531). Put plainly: HiBIT nanoluciferase complementation screen for BRM degraders. The following applies: 18 hours, BRM-HiBIT KI Hela cells, luminescence normalized: DMSO only = 0%, no cells = −100%; for Median HiBiT activity 1 μM: compound 1 μM; for Median HiBiT activity 10 μM: compound 10 μM. An excerpt:
Example B-1: HiBIT Nanoluciferase Complementation Screen for BRM Degraders
To assess BRM degradation, compounds were screened for their effect of BRM levels using the HiBIT nanoluciferase complementation strategy developed at Promega. In brief, a HELA cell line that was genetically modified via CRISPR/CAS9 was used to fuse the HiBIT sequence at the 3′ end of BRM (BRM-HiBIT KI Hela). BRM protein levels were then detected using the Nano-Glo HiBIT lytic detection reagent (Promega).
The screened compounds were plated into a white 384-well plate at 10 μM and 1 μM in 25 nL DMSO using an Echo dispenser (Labcyte). BRM-HiBIT KI Hela cells were seeded in the compound plate at 5000 cell per well at 25 μl in DMEM growth media (containing 10% FBS, 1% Glutamax (GIBCO cat #31053-028), lx Penicillin-Streptomycin (ROCHE, cat #1107444001), 4.5 g/L D-Glucose, and no phenol red). After incubation with compounds for 18 hours at 37° C., cell viability was assessed by the addition of 5 μl Cell Titer-Fluor reagent (Promega). After 30 s of mixing on an orbital shaker, and 30 minutes incubation at 37° C., fluorescence was measured with an INFINITE F500 (Tecan) (380-400 nm excitation, 505 nm emission). Next, to assess BRM HiBIT levels, 30 μl of Nano-Glo HiBIT lytic detection reagent (Promega) containing 1:50 Nano-Glo HiBIT lytic substrate and 1:100 LgBIT protein per ml of lytic buffer was added. After shaking on an orbital shaker at 350 rpm for 10 minutes, luminescence was measured on the INFINITE F500 (Tecan). To assess compound effects, luminescence signal was normalized with the mean of wells treated with DMSO only set to 0% and the mean of wells containing no cells set to −100%. Note that, in Table 4, the “Compound Number” corresponds to that used in Table 1.
On the technique in general: HiBiT is a short tag that completes a luciferase, so light tracks the accessible tagged protein.

Assay [2] addresses T1, BRM. The experiment in a line: Immunofluorescence assay for BRM degradation in SW1573 cells. Details: treated overnight at 4° C. with either BRM primary antibody (Cell signaling Cat #11966) or BRG primary antibody; endogenous in cells; host or cells: SW1573. Particulars: 20 hours incubation; for DC50: immunofluorescence mean nuclear signal, read-out: BRM IF Degradation IC50; for BRM IF Degradation Sinf (%): normalized to a known degrader control. An outline of the steps:
(§1)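 After a 20 h incubation with test compound, SW1573 cells are fixed and stained for BRM or BRG1 plus Hoechst. Per-cell mean nuclear intensity, referenced to a degrader control, is fit concentration-dependently with unconstrained maximum for Dmax.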

The target in another assay is T2, BRG1 (Homo sapiens, UniProt P51532).
T2 construct: either BRM primary antibody (Cell signaling Cat #11966) or BRG primary antibody (Abcam, ab 110641); endogenous in cells; host or cells: SW1573
T2 sequence (P51532 whole entry): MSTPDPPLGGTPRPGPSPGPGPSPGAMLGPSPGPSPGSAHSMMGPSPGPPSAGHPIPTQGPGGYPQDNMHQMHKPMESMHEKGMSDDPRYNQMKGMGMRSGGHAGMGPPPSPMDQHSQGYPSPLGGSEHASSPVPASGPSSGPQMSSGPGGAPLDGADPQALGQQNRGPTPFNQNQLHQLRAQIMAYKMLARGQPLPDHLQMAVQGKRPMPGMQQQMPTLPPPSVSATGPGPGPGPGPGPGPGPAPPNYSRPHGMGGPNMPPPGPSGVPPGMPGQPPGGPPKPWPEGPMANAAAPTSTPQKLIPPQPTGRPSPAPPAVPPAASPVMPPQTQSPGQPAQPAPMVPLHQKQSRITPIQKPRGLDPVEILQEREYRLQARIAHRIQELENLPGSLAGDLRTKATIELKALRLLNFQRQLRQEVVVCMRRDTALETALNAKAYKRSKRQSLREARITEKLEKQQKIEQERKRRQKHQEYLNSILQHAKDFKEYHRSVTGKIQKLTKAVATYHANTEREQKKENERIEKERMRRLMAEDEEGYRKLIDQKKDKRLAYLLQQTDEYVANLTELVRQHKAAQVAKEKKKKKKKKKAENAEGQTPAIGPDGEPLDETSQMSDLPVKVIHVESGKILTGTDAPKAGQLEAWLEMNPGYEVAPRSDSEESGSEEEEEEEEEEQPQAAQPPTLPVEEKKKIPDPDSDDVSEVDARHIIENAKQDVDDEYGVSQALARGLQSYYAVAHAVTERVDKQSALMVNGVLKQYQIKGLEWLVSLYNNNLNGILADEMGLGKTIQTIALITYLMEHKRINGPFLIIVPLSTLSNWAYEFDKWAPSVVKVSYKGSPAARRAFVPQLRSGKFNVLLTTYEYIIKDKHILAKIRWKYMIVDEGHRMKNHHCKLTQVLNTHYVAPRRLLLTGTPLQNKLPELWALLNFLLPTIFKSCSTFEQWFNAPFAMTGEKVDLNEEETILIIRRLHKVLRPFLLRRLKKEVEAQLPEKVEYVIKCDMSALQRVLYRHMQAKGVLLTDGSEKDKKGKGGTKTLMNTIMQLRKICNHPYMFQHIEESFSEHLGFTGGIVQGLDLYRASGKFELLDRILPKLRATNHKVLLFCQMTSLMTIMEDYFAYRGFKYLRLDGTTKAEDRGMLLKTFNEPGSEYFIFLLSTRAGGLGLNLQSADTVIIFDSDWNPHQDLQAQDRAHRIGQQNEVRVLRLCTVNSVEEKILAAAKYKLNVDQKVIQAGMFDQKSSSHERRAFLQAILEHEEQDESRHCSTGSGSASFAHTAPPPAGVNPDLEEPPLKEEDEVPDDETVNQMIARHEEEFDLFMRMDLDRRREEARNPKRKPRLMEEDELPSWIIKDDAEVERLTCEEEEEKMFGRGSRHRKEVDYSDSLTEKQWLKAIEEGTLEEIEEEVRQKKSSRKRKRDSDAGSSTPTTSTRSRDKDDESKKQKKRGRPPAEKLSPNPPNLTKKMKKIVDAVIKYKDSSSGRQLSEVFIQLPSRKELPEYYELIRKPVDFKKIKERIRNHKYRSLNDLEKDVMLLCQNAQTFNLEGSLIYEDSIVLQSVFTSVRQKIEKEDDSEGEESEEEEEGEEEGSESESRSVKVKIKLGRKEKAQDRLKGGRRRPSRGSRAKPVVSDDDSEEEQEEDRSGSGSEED
Put plainly: Immunofluorescence assay for BRG1 degradation in SW1573 cells. Particulars: 20 hours incubation; for DC50: immunofluorescence mean nuclear signal, read-out: BRG1 IF Degradation IC50; for Dmax: SW1573, 20 h, normalized to a known degrader control, read-out: BRG1 IF Degradation Sinf (%). In short, it runs like this:
as §1

Structures are written as SMILES.

T1 sequence (P51531 whole entry): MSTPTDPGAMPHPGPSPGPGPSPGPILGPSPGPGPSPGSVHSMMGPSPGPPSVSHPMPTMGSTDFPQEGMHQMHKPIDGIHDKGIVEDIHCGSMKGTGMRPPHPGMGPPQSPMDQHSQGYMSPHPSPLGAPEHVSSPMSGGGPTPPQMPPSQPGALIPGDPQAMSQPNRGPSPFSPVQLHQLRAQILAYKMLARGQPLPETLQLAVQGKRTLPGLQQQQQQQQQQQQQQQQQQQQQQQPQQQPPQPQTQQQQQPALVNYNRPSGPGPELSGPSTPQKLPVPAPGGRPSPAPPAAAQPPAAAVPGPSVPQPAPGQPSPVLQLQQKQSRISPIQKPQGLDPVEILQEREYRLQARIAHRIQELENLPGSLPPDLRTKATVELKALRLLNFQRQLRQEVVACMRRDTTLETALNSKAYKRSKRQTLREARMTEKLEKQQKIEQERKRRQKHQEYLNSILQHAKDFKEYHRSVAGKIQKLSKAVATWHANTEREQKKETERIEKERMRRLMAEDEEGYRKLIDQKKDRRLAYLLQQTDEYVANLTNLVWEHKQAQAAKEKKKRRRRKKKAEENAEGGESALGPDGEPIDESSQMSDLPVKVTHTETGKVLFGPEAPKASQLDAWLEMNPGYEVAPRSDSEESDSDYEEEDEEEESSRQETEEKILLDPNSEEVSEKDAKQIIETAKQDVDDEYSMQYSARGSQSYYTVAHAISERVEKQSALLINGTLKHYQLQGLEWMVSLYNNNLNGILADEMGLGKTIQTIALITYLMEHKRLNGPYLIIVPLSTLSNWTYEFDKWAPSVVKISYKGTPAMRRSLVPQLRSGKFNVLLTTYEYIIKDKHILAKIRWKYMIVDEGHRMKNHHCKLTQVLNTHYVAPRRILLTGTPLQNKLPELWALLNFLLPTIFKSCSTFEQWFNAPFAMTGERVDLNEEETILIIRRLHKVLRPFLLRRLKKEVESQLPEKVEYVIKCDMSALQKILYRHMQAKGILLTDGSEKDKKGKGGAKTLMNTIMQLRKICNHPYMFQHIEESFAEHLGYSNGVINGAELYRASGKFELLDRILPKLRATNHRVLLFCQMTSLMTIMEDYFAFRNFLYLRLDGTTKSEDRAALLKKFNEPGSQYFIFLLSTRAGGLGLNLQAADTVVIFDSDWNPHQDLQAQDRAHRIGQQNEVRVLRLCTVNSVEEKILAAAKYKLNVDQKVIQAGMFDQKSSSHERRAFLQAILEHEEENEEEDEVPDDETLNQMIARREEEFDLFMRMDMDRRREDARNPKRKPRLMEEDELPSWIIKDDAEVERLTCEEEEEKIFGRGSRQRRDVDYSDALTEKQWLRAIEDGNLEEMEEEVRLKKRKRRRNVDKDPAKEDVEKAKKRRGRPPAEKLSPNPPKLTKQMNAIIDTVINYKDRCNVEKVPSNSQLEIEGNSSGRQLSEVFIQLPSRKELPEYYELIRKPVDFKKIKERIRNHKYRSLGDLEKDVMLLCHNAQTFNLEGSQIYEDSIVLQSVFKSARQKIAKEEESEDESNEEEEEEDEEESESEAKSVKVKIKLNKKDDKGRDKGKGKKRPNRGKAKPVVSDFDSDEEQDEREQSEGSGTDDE

Turning to `Nc1nnc(-c2ccccc2O)cc1N1CC2CCC(C1)N2c1ccnc(C#CCCN2CCNCC2)c1` [Compound 1, 2-(6-amino-5-(8-(2-(4-(piperazin-1-yl)but-1-yn-1-yl)pyridin-4-yl)-3,8-diazabicyclo[3.2.1]octan-3-yl)pyridazin-3-yl)phenol], at BRM [1], the “Median HiBiT activity 1 μM” value was −87.0122% and the “Median HiBiT activity 10 μM” value was −81.2914%. Further, at BRM [2], the DC50 lay in the range of 10 to 100 nM and the “BRM IF Degradation Sinf (%)” value is on record as “F (F indicates −71%-−120%)”. On BRG1, the DC50 is greater than 100 nM and the Dmax was 71 to 120%.
As to `Nc1nnc(-c2ccccc2O)cc1N1CC2CCC(C1)N2c1ccnc(C#CCN2CCCC2)c1` [Compound 2, 2-(6-amino-5-(8-(2-(3-(pyrrolidin-1-yl)prop-1-yn-1-yl)pyridin-4-yl)-3,8-diazabicyclo[3.2.1]octan-3-yl)pyridazin-3-yl)phenol], at BRM [1], the “Median HiBiT activity 1 μM” value is listed as −73.6048% and the “Median HiBiT activity 10 μM” value is −28.0898%. In addition, on BRM [2], the DC50 is less than 10 nM and the “BRM IF Degradation Sinf (%)” value is “E (E indicates −30%-−70%)”. On BRG1, the DC50 was less than 10 nM and the Dmax fell in the range of 30 to 70%.
As to `CN(CC#Cc1cc(N2C3CCC2CN(c2cc(-c4ccccc4O)nnc2N)C3)ccn1)CCO` [Compound 3, 2-(6-amino-5-(8-(2-(3-((2-hydroxyethyl)(methyl)amino)prop-1-yn-1-yl)pyridin-4-yl)-3,8-diazabicyclo[3.2.1]octan-3-yl)pyridazin-3-yl)phenol], at BRM [1], the “Median HiBiT activity 1 μM” value was −68.4262% and the “Median HiBiT activity 10 μM” value is listed as −39.6172%. In addition, at BRM [2], the DC50 is 10 to 100 nM and the “BRM IF Degradation Sinf (%)” value was “E (E indicates −30%-−70%)”. Besides, at BRG1, the DC50 is 10 to 100 nM and the Dmax lay within 30 to 70%.
Take `Nc1nnc(-c2ccccc2O)cc1N1CC2CCC(C1)N2c1ccnc(C#CCOCCO)c1` [Compound 4, 2-(6-amino-5-(8-(2-(3-(2-hydroxyethoxy)prop-1-yn-1-yl)pyridin-4-yl)-3,8-diazabicyclo[3.2.1]octan-3-yl)pyridazin-3-yl)phenol]: at BRM [1], the “Median HiBiT activity 1 μM” value is listed as −65.5436% and the “Median HiBiT activity 10 μM” value is listed as −51.5968%. For the same compound, at BRM [2], the DC50 was 10 to 100 nM and the “BRM IF Degradation Sinf (%)” value is recorded as “E (E indicates −30%-−70%)”. Further, at BRG1, the DC50 was in the range of 10 to 100 nM and the Dmax was 0 to 30%.
Regarding `CCN(CC)CC#Cc1cc(N2C3CCC2CN(c2cc(-c4ccccc4O)nnc2N)C3)ccn1` [Compound 5, 2-(6-amino-5-(8-(2-(3-(diethylamino)prop-1-yn-1-yl)pyridin-4-yl)-3,8-diazabicyclo[3.2.1]octan-3-yl)pyridazin-3-yl)phenol], on BRM [1], the “Median HiBiT activity 1 μM” value is recorded as −63.6385% and the “Median HiBiT activity 10 μM” value is reported as −31.0597%. Besides, at BRM [2], the DC50 is less than 10 nM and the “BRM IF Degradation Sinf (%)” value was “E (E indicates −30%-−70%)”. At BRG1, the DC50 was less than 10 nM and the Dmax fell in the range of 30 to 70%.
With `Nc1nnc(-c2ccccc2O)cc1N1CC2CCC(C1)N2c1ccnc(C#CC2CNC2)c1` [Compound 6, 2-(6-amino-5-(8-(2-(azetidin-3-ylethynyl)pyridin-4-yl)-3,8-diazabicyclo[3.2.1]octan-3-yl)pyridazin-3-yl)phenol], on BRM [1], the “Median HiBiT activity 1 μM” value is reported as −61.1458% and the “Median HiBiT activity 10 μM” value is recorded as −67.7912%. Further, on BRM [2], the DC50 fell in the range of 10 to 100 nM and the “BRM IF Degradation Sinf (%)” value is “E (E indicates −30%-−70%)”. Besides, on BRG1, the DC50 is greater than 100 nM and the Dmax lay within 0 to 30%.
`Nc1nnc(-c2ccccc2O)cc1N1CC2CCC(C1)N2c1ccnc(C#CCC2CCNC2)c1` (stereo not drawn) [Compound 34, 2-(6-amino-5-(8-(2-(3-(pyrrolidin-3-yl)prop-1-yn-1-yl)pyridin-4-yl)-3,8-diazabicyclo[3.2.1]octan-3-yl)pyridazin-3-yl)phenol]: on BRM [1], the “Median HiBiT activity 1 μM” value is reported as −7.217% and the “Median HiBiT activity 10 μM” value was −29.4355%. Further, the DC50 at BRM [2] was greater than 100 nM.

For the origin of these results see patent US11993599B2, “Therapeutic compounds” (Genentech, Inc., priority 2021, dated 2024).
